The compounds below were run against ROCK2 (Homo sapiens, UniProt O75116) (assay: ROCK2 assay (Caliper LABCHIP peptide phosphorylation, kinase inhibition)). Settings: 5 μM ATP, 1.5 μM peptide substrate.
Assay type: biochemical
Procedure: The effectiveness of compounds of the present invention as ROCK inhibitors can be determined in a 30 μL assay containing 20 mM HEPES, pH 7.5, 20 mM MgCl2, 0.015% Brij-35, 4 mM DTT, 5 μM ATP and 1.5 μM peptide substrate (FITC-AHA-AKRRRLSSLRA-OH) (SEQ ID NO. 1). Compounds were dissolved in DMSO so that the final concentration of DMSO was <2%, and the reaction was initiated with Rho kinase variants. After incubation, the reaction was terminated by the addition of EDTA and the phosphorylated and non-phosphorylated peptides separated using a LABCHIP® 3000 Reader (Caliper Life Sciences). […] Compounds were tested in dose-response format, and the inhibition of kinase activity was calculated at each concentration of compound. The inhibition data were fit using a curve-fitting program to determine the IC50; i.e., the concentration of compound required to inhibit 50% of kinase activity.
Representative Examples were tested in the ROCK2 assay described above and found having ROCK2 inhibitory activity. The ranges of the ROCK2 IC50 values are as follows: ROCK2 IC50: ++++ (<10 nM) +++ (10-100 nM) ++ (100-500 nM) + (500-2000 nM)

ROCK2, sequence (O75116 whole entry, species assumed): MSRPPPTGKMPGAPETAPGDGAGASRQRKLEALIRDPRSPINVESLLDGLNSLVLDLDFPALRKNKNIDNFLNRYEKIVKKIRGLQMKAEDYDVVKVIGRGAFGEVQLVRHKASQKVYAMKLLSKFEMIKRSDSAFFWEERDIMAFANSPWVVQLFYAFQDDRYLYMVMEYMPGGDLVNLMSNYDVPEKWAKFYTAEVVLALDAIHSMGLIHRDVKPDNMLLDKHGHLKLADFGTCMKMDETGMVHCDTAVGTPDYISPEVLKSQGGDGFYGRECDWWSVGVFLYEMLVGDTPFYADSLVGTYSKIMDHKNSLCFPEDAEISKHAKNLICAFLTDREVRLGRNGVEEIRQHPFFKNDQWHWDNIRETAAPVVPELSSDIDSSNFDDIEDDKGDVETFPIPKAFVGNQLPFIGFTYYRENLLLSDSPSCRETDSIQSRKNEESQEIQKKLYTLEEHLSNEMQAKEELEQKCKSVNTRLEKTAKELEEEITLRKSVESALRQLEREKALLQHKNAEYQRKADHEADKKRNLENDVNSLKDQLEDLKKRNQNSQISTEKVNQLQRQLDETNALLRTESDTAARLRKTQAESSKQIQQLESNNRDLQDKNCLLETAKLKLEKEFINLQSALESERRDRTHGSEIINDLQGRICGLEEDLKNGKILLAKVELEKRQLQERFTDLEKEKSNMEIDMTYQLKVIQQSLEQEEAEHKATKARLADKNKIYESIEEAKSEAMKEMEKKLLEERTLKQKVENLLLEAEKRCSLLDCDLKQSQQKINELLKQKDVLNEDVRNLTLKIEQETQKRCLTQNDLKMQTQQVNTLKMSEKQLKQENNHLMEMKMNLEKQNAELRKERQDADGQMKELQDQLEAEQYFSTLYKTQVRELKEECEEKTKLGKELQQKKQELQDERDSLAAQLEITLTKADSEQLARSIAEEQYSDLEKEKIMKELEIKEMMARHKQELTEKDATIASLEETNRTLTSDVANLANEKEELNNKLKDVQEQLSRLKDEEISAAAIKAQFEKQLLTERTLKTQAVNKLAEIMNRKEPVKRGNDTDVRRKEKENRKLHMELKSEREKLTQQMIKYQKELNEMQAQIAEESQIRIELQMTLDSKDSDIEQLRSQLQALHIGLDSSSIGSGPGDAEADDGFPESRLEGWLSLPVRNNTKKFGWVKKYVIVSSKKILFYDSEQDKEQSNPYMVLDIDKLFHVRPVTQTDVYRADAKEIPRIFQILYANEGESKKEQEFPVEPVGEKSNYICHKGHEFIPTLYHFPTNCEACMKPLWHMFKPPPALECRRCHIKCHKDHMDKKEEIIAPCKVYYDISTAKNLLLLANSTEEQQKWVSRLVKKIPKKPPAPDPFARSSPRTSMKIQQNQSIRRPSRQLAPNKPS

Row | SMILES | IC50 [nM]
1 | COc1cc(NC2CCN(c3ccc(-c4n[nH]c(=O)c5ccccc45)cc3)C2=O)ccc1N1CCOCC1 (stereo not drawn) [Example 49, 4-[4-(3-{[3-methoxy-4-(morpholin-4-yl)phenyl]amino}-2-oxopyrrolidin-1-yl)phenyl]-1,2-dihydrophthalazin-1-one] | 10 to 100
2 | O=C1C(Nc2ccccc2)CCN1c1ccc(-c2n[nH]c(=O)c3ccccc23)cc1 (stereo not drawn) [Example 27, 4-{4-[2-oxo-3-(phenylamino)pyrrolidin-1-yl]phenyl}-1,2-dihydrophthalazin-1-one] | 10 to 100
3 | O=C1OC2CCCCC2N1c1ccc(-c2n[nH]c(=O)c3ccccc23)cc1 (stereo not drawn) [Example 21, 4-[4-(2-oxo-octahydro-1,3-benzoxazol-3-yl)phenyl]-1,2-dihydrophthalazin-1-one] | 500 to 2000
4 | COc1cccc(Cn2c(C)nn(-c3ccc(-c4c[nH]c(=O)c5ccsc45)cc3)c2=O)c1 [Example 72, 4-[(3-methoxyphenyl)methyl]-3-methyl-1-(4-{4-oxo-3aH,4H,5H,7aH-thieno[3,2-c]pyridin-7-yl}phenyl)-4,5-dihydro-1H-1,2,4-triazol-5-one] | 500 to 2000
5 | COc1cc(OC2CCN(c3ccc(-c4n[nH]c(=O)c5ccccc45)cc3)C2=O)ccc1F (stereo not drawn) [Example 88, 4-{4-[3-(4-fluoro-3-methoxyphenoxy)-2-oxopyrrolidin-1-yl]phenyl}-1,2-dihydrophthalazin-1-one] | 10 to 100
6 | COc1cc(F)cc(OC2CCN(c3ccc(-c4n[nH]c(=O)c5ccccc45)cc3)C2=O)c1 (stereo not drawn) [Example 89, 4-{4-[3-(3-fluoro-5-methoxyphenoxy)-2-oxopyrrolidin-1-yl]phenyl}-1,2-dihydrophthalazin-1-one] | 10 to 100
7 | COc1cccc(NC2CCN(c3ccc(-c4n[nH]c(=O)c5ccccc45)cc3)C2=O)c1 (stereo not drawn) [Example 26, 4-(4-{3-[(3-methoxyphenyl)amino]-2-oxopyrrolidin-1-yl}phenyl)-1,2-dihydrophthalazin-1-one] | 10 to 100
8 | CN1CCc2cc(NC3CCN(c4ccc(-c5n[nH]c(=O)c6ccccc56)cc4)C3=O)ccc2C1 (stereo not drawn) [Example 75, 4-(4-{3-[(2-methyl-1,2,3,4-tetrahydroisoquinolin-6-yl)amino]-2-oxopyrrolidin-1-yl}phenyl)-1,2-dihydrophthalazin-1-one] | 500 to 2000
9 | O=C(Nc1ccccc1)C1CCN(c2ccc(-c3n[nH]c(=O)c4ccccc34)cc2)C1=O (stereo not drawn) [Example 6, 2-oxo-1-[4-(4-oxo-3,4-dihydrophthalazin-1-yl)phenyl]-N-phenylpyrrolidine-3-carboxamide] | 100 to 500
10 | O=C1C(NC2CCCC2)CCN1c1ccc(-c2n[nH]c(=O)c3ccccc23)cc1 (stereo not drawn) [Example 28, 4-{4-[3-(cyclopentylamino)-2-oxopyrrolidin-1-yl]phenyl}-1,2-dihydrophthalazin-1-one] | 500 to 2000
11 | O=C1C(Nc2cnn(-c3ccccc3)c2)CCN1c1ccc(-c2n[nH]c(=O)c3ccccc23)cc1 (stereo not drawn) [Example 39, 4-(4-{2-oxo-3-[(1-phenyl-1H-pyrazol-4-yl)amino]pyrrolidin-1-yl}phenyl)-1,2-dihydrophthalazin-1-one] | 10 to 100
12 | O=C1C(Nc2cccc(OC(F)F)c2)CCN1c1ccc(-c2c[nH]c(=O)c3ccccc23)cc1 (racemic) [Example 58, 4-[4-(3-{[3-(difluoromethoxy)phenyl]amino}-2-oxopyrrolidin-1-yl)phenyl]-1,2-dihydroisoquinolin-1-one] | < 10
13 | N#Cc1ccnc(NC2CCN(c3ccc(-c4n[nH]c(=O)c5ccccc45)cc3)C2=O)c1 (stereo not drawn) [Example 74, 2-({2-oxo-1-[4-(4-oxo-3,4-dihydrophthalazin-1-yl)phenyl]pyrrolidin-3-yl}amino)pyridine-4-carbonitrile] | 10 to 100
14 | CCCC1CN(c2ccc(-c3n[nH]c(=O)c4ccccc34)cc2)C(=O)O1 (stereo not drawn) [Example 17, 4-[4-(2-oxo-5-propyl-1,3-oxazolidin-3-yl)phenyl]-1,2-dihydrophthalazin-1-one] | 100 to 500
15 | CC(C)Oc1cccc(NC2CCN(c3ccc(-c4n[nH]c(=O)c5ccccc45)cc3)C2=O)c1 (stereo not drawn) [Example 57, 4-[4-(2-oxo-3-{[3-(propan-2-yloxy)phenyl]amino}pyrrolidin-1-yl)phenyl]-1,2-dihydrophthalazin-1-one] | 10 to 100
16 | O=C1C(NCc2ccccc2)CCN1c1ccc(-c2n[nH]c(=O)c3ccccc23)cc1 (stereo not drawn) [Example 25, 4-{4-[3-(benzylamino)-2-oxopyrrolidin-1-yl]phenyl}-1,2-dihydrophthalazin-1-one] | 500 to 2000
17 | O=C1C(Oc2cccc(OC(F)(F)F)c2)CCN1c1ccc(-c2n[nH]c(=O)c3ccccc23)cc1 (single isomer, unassigned) [Example 85, 4-(4-{2-oxo-3-[3-(trifluoromethoxy)phenoxy]pyrrolidin-1-yl}phenyl)-1,2-dihydrophthalazin-1-one] | < 10
18 | O=C1C(Nc2cccc(OC(F)(F)F)c2)CCN1c1ccc(-c2n[nH]c(=O)c3ccccc23)cc1 (stereo not drawn) [Example 52, 4-[4-(2-oxo-3-{[3-(trifluoromethoxy)phenyl]amino}pyrrolidin-1-yl)phenyl]-1,2-dihydrophthalazin-1-one] | < 10

Next, values leading:

Row | IC50 [nM] | SMILES
19 | 10 to 100 | O=C1C(Nc2cccc(F)n2)CCN1c1ccc(-c2n[nH]c(=O)c3ccccc23)cc1 (stereo not drawn) [Example 69, 4-(4-{3-[(6-fluoropyridin-2-yl)amino]-2-oxopyrrolidin-1-yl}phenyl)-1,2-dihydrophthalazin-1-one]
20 | 100 to 500 | O=C1C(Nc2ccc3c(c2)CCNC3)CCN1c1ccc(-c2n[nH]c(=O)c3ccccc23)cc1 (stereo not drawn) [Example 70, 4-(4-{2-oxo-3-[(1,2,3,4-tetrahydroisoquinolin-6-yl)amino]pyrrolidin-1-yl}phenyl)-1,2-dihydrophthalazin-1-one]
21 | 100 to 500 | O=C1C(c2ccccc2)CCN1c1ccc(-c2n[nH]c(=O)c3ccccc23)cc1 (stereo not drawn) [Example 1, 4-[4-(2-oxo-3-phenylpyrrolidin-1-yl)phenyl]-1,2-dihydrophthalazin-1-one]
22 | 500 to 2000 | COc1cccc([C@@H](C)NC2CCN(c3ccc(-c4n[nH]c(=O)c5ccccc45)cc3)C2=O)c1 (stereo partly drawn) [Example 44, 4-[4-(3-{[(1R)-1-(3-methoxyphenyl)ethyl]amino}-2-oxopyrrolidin-1-yl)phenyl]-1,2-dihydrophthalazin-1-one]
23 | 10 to 100 | O=C1C(Nc2ccc3c(c2)OCCCO3)CCN1c1ccc(-c2n[nH]c(=O)c3ccccc23)cc1 (single isomer, unassigned) [Example 76, 4-(4-{3-[(3,4-dihydro-2H-1,5-benzodioxepin-7-yl)amino]-2-oxopyrrolidin-1-yl}phenyl)-1,2-dihydrophthalazin-1-one]
24 | 10 to 100 | COc1cc(C)cc(NC2CCN(c3ccc(-c4n[nH]c(=O)c5ccccc45)cc3)C2=O)c1 (stereo not drawn) [Example 38, 4-(4-{3-[(3-methoxy-5-methylphenyl)amino]-2-oxopyrrolidin-1-yl}phenyl)-1,2-dihydrophthalazin-1-one]
25 | 10 to 100 | CC(C)c1cc(NC2CCN(c3ccc(-c4n[nH]c(=O)c5ccccc45)cc3)C2=O)n(C)n1 (stereo not drawn) [Example 71, 4-[4-(3-{[1-methyl-3-(propan-2-yl)-1H-pyrazol-5-yl]amino}-2-oxopyrrolidin-1-yl)phenyl]-1,2-dihydrophthalazin-1-one]
26 | 10 to 100 | O=C1C(Nc2ccc3c(c2)OCCCO3)CCN1c1ccc(-c2n[nH]c(=O)c3ccccc23)cc1 (stereo not drawn) [Example 34, 4-(4-{3-[(3,4-dihydro-2H-1,5-benzodioxepin-7-yl)amino]-2-oxopyrrolidin-1-yl}phenyl)-1,2-dihydrophthalazin-1-one]
27 | 500 to 2000 | O=C1OC(c2ccc(F)cc2)CN1c1ccc(-c2n[nH]c(=O)c3ccccc23)cc1 (stereo not drawn) [Example 19, 4-{4-[5-(4-fluorophenyl)-2-oxo-1,3-oxazolidin-3-yl]phenyl}-1,2-dihydrophthalazin-1-one]
28 | 10 to 100 | O=C1C(Nc2ccc3c(c2)OCCO3)CCN1c1ccc(-c2n[nH]c(=O)c3ccccc23)cc1 (stereo not drawn) [Example 50, 4-(4-{3-[(2,3-dihydro-1,4-benzodioxin-6-yl)amino]-2-oxopyrrolidin-1-yl}phenyl)-1,2-dihydrophthalazin-1-one]
29 | 10 to 100 | COc1ccc(F)c(OC2CCN(c3ccc(-c4n[nH]c(=O)c5ccccc45)cc3)C2=O)c1 (stereo not drawn) [Example 87, 4-{4-[3-(2-fluoro-5-methoxyphenoxy)-2-oxopyrrolidin-1-yl]phenyl}-1,2-dihydrophthalazin-1-one]
30 | 100 to 500 | Cn1ccc(NC2CCN(c3ccc(-c4n[nH]c(=O)c5ccccc45)cc3)C2=O)n1 (stereo not drawn) [Example 65, 4-(4-{3-[(1-methyl-1H-pyrazol-3-yl)amino]-2-oxopyrrolidin-1-yl}phenyl)-1,2-dihydrophthalazin-1-one]
31 | 10 to 100 | CCc1ccccc1NC1CCN(c2ccc(-c3n[nH]c(=O)c4ccccc34)cc2)C1=O (stereo not drawn) [Example 31, 4-(4-{3-[(2-ethylphenyl)amino]-2-oxopyrrolidin-1-yl}phenyl)-1,2-dihydrophthalazin-1-one]
32 | < 10 | Cc1nc2ccc(NC3CCN(c4ccc(-c5n[nH]c(=O)c6ccccc56)cc4)C3=O)cc2s1 (single isomer, unassigned) [Example 80, 4-(4-{3-[(2-methyl-1,3-benzothiazol-6-yl)amino]-2-oxopyrrolidin-1-yl}phenyl)-1,2-dihydrophthalazin-1-one]
33 | 10 to 100 | O=C1C(Nc2cccc(OC(F)F)c2)CCN1c1ccc(-c2c[nH]c(=O)c3ccccc23)cc1 (single isomer, unassigned) [Example 78, 4-[4-(3-{[3-(difluoromethoxy)phenyl]amino}-2-oxopyrrolidin-1-yl)phenyl]-1,2-dihydroisoquinolin-1-one]

— patent publication US10730858B2, “Lactam, cyclic urea and carbamate, and triazolone derivatives as potent and selective rock inhibitors” (BRISTOL-MYERS SQUIBB COMPANY, priority 2016, dated 2020)
